Laboratory results taken from patent US8945540B2, “Compositions for enhancing the antibacterial activity of myeloperoxidase and methods of use thereof” (Exoxemis, Inc., priority 2008, dated 2015).
Read-outs that look alike come from different tables or passages of the source. Where a SMILES comes first, the peptide text is derived from it.

Legend:
[1] = test system: Staphylococcus aureus; test: Control: microbicidal activity of the amino acid or analogue alone (no glucose, MPO, glucose oxidase) in the presence of blood; type: cell-based; conditions: for log reduction at 5000 µM: Staphylococcus aureus, 1 h, read-out: Log Reduction 60 min
Text: As a control to determine the microbicidal activity of the amino acids alone, the foregoing procedure was followed without replication, except in the absence of glucose, MPO, and glucose oxidase.

[2] = test system: Staphylococcus aureus; test: Microbicidal activity of the myeloperoxidase system (p-MPO, glucose oxidase, glucose) with amino acids in the presence of blood, CFU plate counts; synergy determination from these CFU; type: cell-based; conditions: for Average Viability CFU/ml 50 min / Log Reduction 50 min: MPO 4.7 U/ml, GO 4.2 U/ml
Description: Bacterial suspensions, specifically Staphylococcus aureus in this example, were prepared by the shake flask method to achieve late log to early stationary phase growth. Bacteria were grown 24 hours in trypticase soy broth (TSB) at 35° C. The cultures were centrifuged at 4,000 rpm for 10 minutes and the supernatants removed. The pellet was collected and washed twice with sterile 0.9% normal saline (NS). The washed microorganisms were suspended and diluted with normal saline to a 3 McFarland standard, i.e., approximately 10^9 bacteria colony forming units (CFU) per mL. Actual colony counts are confirmed by serial dilutions (10^−1 to 10^−5 or 10^−6) plated on TSA and incubated overnight at 35° C. To obtain an approximate final working target inoculum of 10^7 CFU/mL, 15 microliters of organisms per mL of final reaction mixture are used.
Glucose oxidase (GO) from Aspergillus Niger was purchased from Biozyme, Inc., UK, Cat #GO3A, 270 U/mg). Porcine Myeloperoxidase (p-MPO) (Exoxemis, Inc., Little Rock, Ark. U.S.A., 375 U/mg). Sterile stock solutions of D-glucose and sodium chloride were prepared and used at a final concentration of 150 mM each. L-Lysine hydrochloride (Spectrum Chemical Cat #L1142) was prepared as a 100 mM stock solution. Catalase (Sigma, Cat #C-40) was prepared as a 1% stock solution in sterile 0.9% normal saline. Blood was collected by venipuncture and used as whole blood within the same day.
Staphylococcus aureus were used to give a final target concentration of 2-3×10^7 CFU (7.4 log 10) per mL and venous whole blood was used to give a final concentration of 3%. Glucose was added to the reaction mixtures to a final concentration of 150 mM, which initiated the microbicidal reaction. The final volume of the reaction mixtures was 1 mL. The reactions were allowed to run from 30 minutes to 2 hours, as needed, at room temperature or at 37° C. in a dry bath. At the specified time points the reaction mixtures were treated with 100 microliters of a catalase solution, containing a minimum of 100 units/μL, to consume remaining peroxide and terminate the oxidative killing. Serial dilution plate counts were performed from the contents of each vial in sterile saline and inoculated onto trypticase soy agar (TSA) for quantitative culture. Plates were then incubated at 37° C. and counts taken at 24 hours. […] The results are shown in Table 1, as the average of 2 replicates.
The amino acids alone, in the absence of MPO were tested to rule out their microbicidal activity. The results are shown in Table 2 to Table 6, as the average of 2 replicates.
The amino acid analogues alone, in the absence of MPO, were tested to rule out their microbicidal activity. […]
The effect of two-way combinations of individual amino acids with L-isoleucine, as potential enhancing agents, for MPO microbicidal action in the presence of blood, was therefore examined by following the procedure of Example 5.
The Actual CFU observed for the pair is then divided by the Predicted CFU and multiplied by 100 to calculate the % of Predicted value. This value is then to be compared to the threshold value, discussed in the next section, to determine whether the pair are synergistic, antagonistic, or additive.
Calculation of appropriate threshold values for determination of synergism and antagonism was based upon the variability of replicated CFU survivor measures.

[3] = amino acid alone 5 mM, MPO 0, GO 0, no glucose, blood, without replication
[4] = MPO 100 μg/mL, AA 20 mM, 30 min
[5] = MPO 100 μg/mL, AA 20 mM, 60 min
[6] = Table 3, amino acid 5 mM (none: 0 mM), MPO 38 U/ml, GO 33.3 U/ml, blood
[7] = Table 11, single amino acid 2.5 mM, in the presence of blood, 50 min
[8] = Table 4, amino acid 5 mM (none: 0 mM), MPO 38 U/ml, GO 33.3 U/ml, blood
[9] = Table 5, amino acid 5 mM (none: 0 mM), MPO 38 U/ml, GO 33.3 U/ml, blood
[10] = Table 10, single amino acid 2.5 mM, in the presence of blood, 50 min
[11] = Table 19, amino acid (racemic, L- or D-form) 2.5 mM, 50 min
[12] = single amino acid 2.5 mM, blood
[13] = amino acid analogue alone 5 mM, MPO 0, GO 0, no glucose, blood
[14] = Table 7, amino acid analogue 5 mM, MPO 38 U/ml, GO 33.3 U/ml, blood
[15] = Table 2, amino acid 5 mM (none: 0 mM), MPO 38 U/ml, GO 33.3 U/ml, blood
[16] = Table 13, single amino acid 2.5 mM, in the presence of blood, 50 min

| Structure (SMILES) | log reduction at 5000 µM [1, 3] | Average Viability CFU/ml 60 min [1, 3] [CFU/ml] | Log 10 (CFU + 1) Survivors ([2]; MPO 25 μg/mL, AA 5 mM, 30 min) | Log 10 (CFU + 1) Survivors ([2]; MPO 25 μg/mL, AA 5 mM, 60 min) | Log 10 (CFU + 1) Survivors ([2]; MPO 25 μg/mL, AA […], 30 min) | Log 10 (CFU + 1) Survivors ([2]; MPO 25 μg/mL, AA […], 60 min) | Log 10 (CFU + 1) Survivors ([2]; MPO 100 μg/mL, AA 5 mM, 30 min) | Log 10 (CFU + 1) Survivors ([2]; MPO 100 μg/mL, AA 5 mM, 60 min) | Log 10 (CFU + 1) Survivors [2, 4] | Log 10 (CFU + 1) Survivors [2, 5] | other results |
| --- | --- | --- | --- | --- | --- | --- | --- | --- | --- | --- | --- |
| C[C@H](O)[C@@H](N)C(=O)O [D-Threonine] | 0 | 20700000 | 7.3 | 6.8 | 7.3 | 6.7 | 7.1 | 5.1 | 7.4 | 5.0 | Average Viability CFU/ml 60 min [2, 6]: 815000 CFU/ml; Log 10 (CFU + 1) Survivors 60 min [2, 6]: 5.9; Log Reduction 60 min [2, 6]: 1.4; Average Viability CFU/ml 50 min [2, 7]: 2020000 CFU/ml; Log Reduction 50 min [2, 7]: 1.1 |
| N[C@H](Cc1c[nH]c2ccccc12)C(=O)O [D-Tryptophan] | – | 22600000 | – | – | – | – | – | – | – | – | log reduction at 5000 µM [1]: 0.1; Average Viability CFU/ml 60 min [2, 8]: 19700000 CFU/ml; Log Reduction 60 min [2, 8]: 0.1 |
| N[C@H](Cc1ccc(O)cc1)C(=O)O [D-Tyrosine] | 0 | 23200000 | 6.8 | 5.9 | 6.7 | 7.0 | 6.7 | 5.0 | 5.8 | 0.0 | Average Viability CFU/ml 60 min [2, 9]: 9400 CFU/ml; Log Reduction 60 min [2, 9]: 3.4; Average Viability CFU/ml 50 min [2, 10]: 1320000 CFU/ml; Log Reduction 50 min [2, 10]: 1.3 |
| CC(C)[C@@H](N)C(=O)O [D-Valine] | 0.1 | 20900000 | 4.1 | 0.0 | 6.7 | 0.0 | 0.0 | 0.0 | 0.0 | 0.0 | Average Viability CFU/ml 60 min [2, 9]: 0 CFU/ml; Log Reduction 60 min [2, 9]: 7.4; Average Viability CFU/ml 50 min [2, 10]: 630000 CFU/ml; Log Reduction 50 min [2, 10]: 1.6; Average Viability CFU/ml 50 min [2, 11]: 630000 CFU/ml; Log Reduction 50 min [2, 11]: 1.6; Average Viability CFU/ml 50 min [2, 12]: 630000 CFU/ml; Log Reduction 50 min [2, 12]: 1.6 |
| CCOC(=O)C(C)N (stereo not drawn) [Ethyl 2-aminopropanoate] | – | – | – | – | – | – | – | – | – | – | log reduction at 5000 µM [1, 13]: 0; Average Viability CFU/ml 60 min [1, 13]: 23200000 CFU/ml; Average Viability CFU/ml 60 min [2, 14]: 0 CFU/ml; Log Reduction 60 min [2, 14]: 7.4 |
| CCOC(=O)CC(C)N (stereo not drawn) [Ethyl 3-aminobutyrate] | – | – | – | – | – | – | – | – | – | – | log reduction at 5000 µM [1, 13]: 0; Average Viability CFU/ml 60 min [1, 13]: 20900000 CFU/ml; Average Viability CFU/ml 60 min [2, 14]: 0 CFU/ml; Log Reduction 60 min [2, 14]: 7.4 |
| COC(=O)CN.Cl [Glycine methyl ester hydrochloride] | – | – | – | – | – | – | – | – | – | – | log reduction at 5000 µM [1]: 0; Average Viability CFU/ml 60 min [1, 13]: 21100000 CFU/ml; Average Viability CFU/ml 60 min [2, 14]: 0 CFU/ml; Log Reduction 60 min [2, 14]: 7.4 |
| NCC(=O)O [Glycine] | 0 | 25300000 | 7.2 | 6.8 | 7.3 | 6.9 | 6.0 | 0.0 | 7.0 | 0.0 | Average Viability CFU/ml 60 min [2, 15]: 0 CFU/ml; Log 10 (CFU + 1) Survivors 60 min [2, 15]: 0.0; Log Reduction 60 min [2, 15]: 7.4; Average Viability CFU/ml 50 min [2, 10]: 9100 CFU/ml; Log Reduction 50 min [2, 10]: 3.4; Average Viability CFU/ml 50 min [2, 16]: 10050 CFU/ml; Log Reduction 50 min [2, 16]: 3.4; Average Viability CFU/ml 50 min [2, 12]: 7050 CFU/ml; Log Reduction 50 min [2, 12]: 3.5; CFU survivors, amino acid acting separately ([2]; standard conditions of Example 5 (2.5 μmol/mL; MPO 4.7 U/mL; GO 4.2 U/mL)): 9300 CFU |
| O=CC(=O)O [Glyoxylic acid] | 0.1 | 22200000 | – | – | – | – | – | – | – | – | Average Viability CFU/ml 60 min [2, 8]: 610000 CFU/ml; Log Reduction 60 min [2, 8]: 1.6 |
| O=C(O)CNC(=O)c1ccccc1 [Hippuric acid] | 0 | 19700000 | 7.3 | 5.9 | 6.7 | 5.8 | 7.3 | 5.9 | 6.8 | 5.0 | Average Viability CFU/ml 60 min [2, 6]: 865000 CFU/ml; Log 10 (CFU + 1) Survivors 60 min [2, 6]: 5.9; Log Reduction 60 min [2, 6]: 1.4 |
| COC(=O)[C@H](C)N [L-Ala methyl ester, L-Alanine methyl ester] | 0 | 24300000 | 7.3 | 0.0 | 7.3 | 0.0 | 0.0 | 0.0 | 0.0 | 0.0 | Average Viability CFU/ml 60 min [2, 8]: 0 CFU/ml; Log Reduction 60 min [2, 8]: 7.4; Average Viability CFU/ml 50 min [2, 10]: 7250000 CFU/ml; Log Reduction 50 min [2, 10]: 0.5 |
| C[C@H](N)C(=O)N[C@@H](C)C(=O)O [L-Ala-L-ala] (H-Ala-Ala-OH) | – | 26100000 | – | – | – | – | – | – | – | – | Log Reduction 60 min [1, 3]: 0.0; Average Viability CFU/ml 60 min [2, 8]: 238500 CFU/ml; Log Reduction 60 min [2, 8]: 2.0 |
| N=C(N)NCCC[C@H](N)C(=O)O [L-Arginine] | – | 23600000 | – | – | – | – | – | – | – | – | log reduction at 5000 µM [1]: 0; Average Viability CFU/ml 60 min [2, 15]: 5450000 CFU/ml; Log 10 (CFU + 1) Survivors 60 min [2, 15]: 6.7; Log Reduction 60 min [2, 15]: 0.6; enhancement of MPO microbicidal activity (in words) ([2]; amino acid 5 mM, MPO 38 U/ml, GO 33.3 U/ml, blood): essentially inactive |
| NC(=O)C[C@H](N)C(=O)O [L-Asparagine] | 0 | 21800000 | – | – | – | – | – | – | – | – | Average Viability CFU/ml 60 min [2, 6]: 5950000 CFU/ml; Log 10 (CFU + 1) Survivors 60 min [2, 6]: 6.8; Log Reduction 60 min [2, 6]: 0.6 |
